Measurements from patent US11702442B2, “Cyclic dinucleotide compounds as sting agonists” (The Regents of the University of California, priority 2019, dated 2023).

Assays:
[1] = tested on: STING pathway; assay: IRF3 phosphorylation in RAW 264.7 cells (immunoblot pIRF3 vs β-actin); type: cell-based, murine; settings: RAW 264.7, 1, 5 and 10 μM CDN, 2 h after transfection
Method: FIGS. 2A-2B show IRF3 phosphorylation induced by c-di-GMP and its analogues. […] 1, 5 and 10 μM of each CDN was used to transfect RAW 264.7 cells. Cells were lysed with NP-40 lysis buffer 2 h post transfection, 20 μg of total protein was loaded on SDS-polyacrylamide gel. Proteins were transferred to PVDF membrane after gel electrophoresis, and immunoblotted against pIRF3 and β-actin. […] The y-axis indicates relative intensity of pIRF3 compare to β-actin.
To analyze the immunostimulatory effects of all synthetic CDNs in greater detail, RAW 264.7 cells were treated with various concentrations of c-di-GMP, c-di-tzGMP, c-di-thGMP, c-GthGMP and c-GtzGMP and the phosphorylation of IRF3 to pIRF3 was evaluated. CDNs were thus transfected into RAW 264.7 murine cells with digitonin as described in previous studies.[7b,16] Cells were then lysed with NP-40 buffer 2 h after transfection, and total protein was collected for immunoblotting against phosphorylated IRF3 (pIRF3) and β-actin. […] Two other biological replicates produced similar trends (See FIG. S2 in Yi et al, ChemBioChem, Volume 21 (2020)).
Immunoblotting. RAW 264.7 cells were plated on 24-well plates (5×10^5 cells per well) and incubate at 37° C. for 48 h. Cells were then transfected with 1-10 μM of CDN in a permeabilization buffer containing 10 μg/mL digitonin, 50 mM HEPES, pH 7, 100 mM KCl, 3 mM MgCl2, 85 mM sucrose, 1 mM ATP, 0.1 mM DTT, 0.2% BSA for 30 mins at 37° C., then incubated with regular growth medium for 2 h. Cells were lysed with NP-40 lysis buffer containing protease inhibitor cocktail (Roche), PhosSTOP (Roche) and PMSF, and total protein was collected and quantified by BCA assay. Protein extracts were resolved by SDS-PAGE with 7.5% gel and transferred to PVDF membrane. Proteins were detected with the following primary antibodies: rabbit anti-pIRF3 monoclonal antibody (Cell Signaling Technology), mouse anti-β actin monoclonal antibody (Sigma-Aldrich).

[2] = biological target: T1, rocR (Pseudomonas aeruginosa, UniProt Q9HX69); assay: rocR-mediated CDN hydrolysis monitored by HPLC; type: biochemical, P. aeruginosa
T1 construct: made in house; host or cells: Escherichia coli BL21(DE3)
Description: [1a,27] rocR is a PDE that contains an EAL domain and specifically recognizes and cleaves c-di-GMP into the linear dinucleotide pGpG. […] [28a,29]
RocR is reported to follow Michaelis-Menten kinetics. [27c,28a] Scheme 2a was therefore used to analyze the reaction kinetics, where k1 and k−1 describe the enzyme/substrate association and dissociation, respectively, while k2 reflects the cleavage reaction. Equations (10)-(13) were thus used to extract the rate constants. When “asymmetrical” mixed c-di-GMP analogues are treated with rocR, the enzyme may, in principle, recognize and cleave either phosphodiester bonds, producing pN1pN2 and pN2pN1. Assuming the two products result from different binding orientation of the heterodimeric CDNs, Scheme 2b is therefore introduced to model the cleavage reactions, where k1, k−1 and k2 reflect the association/dissociation and cleavage of the heterodimeric CDN in one orientation, respectively, and k3, k−3 and k4 reflect the other. Equations (14)-(19) were used to extract the rate constants.
Equations(10)-(19) d[S]/dt=−k1[E][S]+k−1[ES] (10) d[E]/dt=−k1[E][S]+k−1[ES]+k2[ES] (11) d[P]/dt=k2[ES] (12) d[ES]/dt=k1[E][S]−k−1[ES]−k2[ES] (13) d[S]/dt=−k1[E][S]+k−1[ES1]−k3[E][S]+k−3[ES2] (14) d[P1]/dt=k2[ES1] (15) d[P2]/dt=k4[ES2] (16) d[E]/dt=−(k1+k3)[E][S]+(k−1+k2)[ES1]+[…][ES2]] (17) d[ES1]/dt=k1[E][S]−k−1[ES1]−k2[ES1] (18) d[ES2]/dt=k3[E][S]−k−3[ES2]−k4[ES2] (19)
CDN hydrolysis with rocR. […] of CDN was incubated with 100 nM of rocR in a buffer containing 100 mM Tris-HCI, pH 8, 20 mM KCI, 25 mM MgCl2 at 37° C. Aliquots of the reaction mixture were taken out at designated time points and quenched with 100 mM CaCl2. All aliquots were filtered before subjected to reverse-phase HPLC analysis. The reaction mixture was separated by Sepax Bio C-18 column (250×10 mm, 5 µm particle size) with a gradient of 0.1-15% of 10 mM NH4OAc, pH7 in Me0H in 12 minutes at 25° C. or 50° C. (only for reactions of c-GtzGMP and c-di-tzGMP) on an Agilent 1200 series HPLC system (Agilent Technologies).
Data Analysis and curve fitting. […] The relative concentrations were plotted against time.

[3] = tested on: STING pathway; assay: IFN-β mRNA production in RAW 264.7 cells by RT-qPCR; type: cell-based, murine
Method: FIGS. 3A-3C provide IFN data. […] RAW 264.7 cells were transfected with 1, 5, 10 μM of c-di-GMP, c-di-^tzGMP, c-G^thGMP, c-di-G^thGMP and c-G^tzGMP, and incubated for 2, 4, 6 h before being lysed by TRIzol. RNA purification and RT-qPCR were conducted following the protocol described in the Experimental Section. FIG. 3B show IFN response after 2, 4, 6 h of incubation with 5 μM of CDNs. […] Two independent assays were performed in triplicates (n=2). Error bars indicate SD. See Yi et al, Tuning the Innante Immune Response to Cyclic Dinucleotides by Using Atomic Mutagenesis, ChemBioChem, Volume 21 (2020).
As most synthetic c-di-GMP analogues activated IRF3, the inventors analyzed their dose and time dependency for inducing IFN-β mRNA production by using RT-qPCR. RAW 264.7 cells were transfected with 1, 5 and 10 μM of CDNs as described above and incubated for 2, 4 and 6 h. Total RNA was isolated and used for RT-qPCR. As shown in FIGS. 3A-3B, c-di-GMP induced the most IFN-β mRNA production 4 h post transfection, whereas the highest response was observed after 2 h for c-di-tzGMP, c-GthGMP, and c-GtzGMP.
RT-qPCR. RAW 264.7 cells were plated on 48-well plates (2.5×10^5 cells per well) and transfected with CDN using the same method as above after 48 h of incubation at 37° C. Cells were then incubate with regular growth medium for designated time, and total RNA was isolated with TRIzol® reagent and purified with RNeasy mini kit (Qiagen) following the manufacturer's protocol. Following elution, RNA yields were evaluated using a Nanodrop spectrophotometer (Nanodrop technologies). RNA samples were converted to cDNA with SuperScript III First-Strand Synthesis kit (Invitrogen) with random hexamers following the manufacturer's protocol. Quantitative PCR (SYBR Green) analysis was performed in duplicates on an Applied Biosystems 7300 Real-time PCR system (Invitrogen). Transcription level of IFN-β gene of each sample was normalized to housekeeping gene TBP and then to untreated samples (UT) using the delta-delta CT method.

T1 sequence (Q9HX69 whole entry): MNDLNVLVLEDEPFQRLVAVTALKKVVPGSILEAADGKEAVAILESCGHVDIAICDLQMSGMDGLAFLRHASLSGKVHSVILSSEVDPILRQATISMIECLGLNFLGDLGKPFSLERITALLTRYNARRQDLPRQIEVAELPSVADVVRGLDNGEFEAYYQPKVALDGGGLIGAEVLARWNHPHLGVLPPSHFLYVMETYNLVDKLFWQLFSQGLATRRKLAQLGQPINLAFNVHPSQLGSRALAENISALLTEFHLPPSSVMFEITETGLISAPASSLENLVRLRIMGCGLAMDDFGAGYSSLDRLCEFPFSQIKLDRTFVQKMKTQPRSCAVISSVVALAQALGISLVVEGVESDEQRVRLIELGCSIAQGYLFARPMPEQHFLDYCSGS

Nc1nc2c([C@@H]3O[C@@H]4COP(=O)(O)O[C@H]5[C@@H](O)[C@H](n6cnc7c(=O)[nH]c(N)nc76)O[C@@H]5COP(=O)(O)O[C@H]4[C@H]3O)snc2c(=O)[nH]1 [c-G^tzGMP]
IRF3 phosphorylation (pIRF3), concentration dependence [1]: Increasing amounts of phosphorylated IRF3 | k2 (cleavage reaction) ([2]; 100 nM rocR, 37° C.): 3.07 ± 0.25 s⁻¹ | k2 ([2]; 100 nM rocR, 37° C., Table 3): 0.096 ± 0.091 s⁻¹ | k3 ([2]; 100 nM rocR, 37° C., Table 3): 3.07 ± 0.25 s⁻¹ | k3 ([2]; 100 nM rocR, 37° C., association in second orientation of heterodimeric CDN): 1.8e+06 ± 100000 M⁻¹ s⁻¹ | k4 ([2]; 100 nM rocR, 37° C., cleavage in second orientation): 0.34 ± 0.01 s⁻¹ | k−3 ([2]; 100 nM rocR, 37° C., dissociation in second orientation): 0.135 ± 0.007 s⁻¹ | k1 ([2]; 100 nM rocR, 37° C., enzyme/substrate association): 1.85e+06 ± 70000 M⁻¹ s⁻¹ | order of gradually reduced rocR hydrolysis rate ([2]; FIG. 10F): c-di-GMP, c-di-^tzGMP, c-G^tzGMP, c-G^thGMP and lastly c-di-^thGMP | final percentage of product P1 ([2]; Scheme 2b): 58% | final percentage of product P2 ([2]; Scheme 2b): 42% | products of rocR-mediated cleavage ([2]; mixed CDNs, HPLC): two products in nearly the same amount | IFN-β mRNA production / IFN response ([3]; RAW 264.7, 1, 5, 10 μM CDN, 2, 4, 6 h): earlier and stronger maximum IFN-β response compared to the native c-di-GMP | time post transfection of highest IFN-β mRNA production ([3]; RAW 264.7, 1, 5 and 10 μM CDN, 2, 4 and 6 h tested): 2 h | order of IFN-β induction ([3]; RAW 264.7, RT-qPCR, FIG. 3): c-GthGMP>c-di-tzGMP>c-GtzGMP>c-di-GMP>c-di-thGMP
